Tests used:
TLR8 = molecular target: T1, TLR8 (Homo sapiens, UniProt Q9NR97); assay: Human whole blood assay, TLR8-specific agonist stimulation, IL-6 by AlphaLISA; assay type: cell-based; conditions: TLR8-specific agonist 0.5 µM, IL-6 readout, read-out: IC50 TLR8 (IL6 READOUT) HUMAN WHOLE BLOOD (N=2)
T1 construct: Human whole blood from healthy donors was drawn into EDTA Vacutainer tubes; endogenous in cells; host or cells: human whole blood (healthy donors)
T1 sequence (Q9NR97 27-1041): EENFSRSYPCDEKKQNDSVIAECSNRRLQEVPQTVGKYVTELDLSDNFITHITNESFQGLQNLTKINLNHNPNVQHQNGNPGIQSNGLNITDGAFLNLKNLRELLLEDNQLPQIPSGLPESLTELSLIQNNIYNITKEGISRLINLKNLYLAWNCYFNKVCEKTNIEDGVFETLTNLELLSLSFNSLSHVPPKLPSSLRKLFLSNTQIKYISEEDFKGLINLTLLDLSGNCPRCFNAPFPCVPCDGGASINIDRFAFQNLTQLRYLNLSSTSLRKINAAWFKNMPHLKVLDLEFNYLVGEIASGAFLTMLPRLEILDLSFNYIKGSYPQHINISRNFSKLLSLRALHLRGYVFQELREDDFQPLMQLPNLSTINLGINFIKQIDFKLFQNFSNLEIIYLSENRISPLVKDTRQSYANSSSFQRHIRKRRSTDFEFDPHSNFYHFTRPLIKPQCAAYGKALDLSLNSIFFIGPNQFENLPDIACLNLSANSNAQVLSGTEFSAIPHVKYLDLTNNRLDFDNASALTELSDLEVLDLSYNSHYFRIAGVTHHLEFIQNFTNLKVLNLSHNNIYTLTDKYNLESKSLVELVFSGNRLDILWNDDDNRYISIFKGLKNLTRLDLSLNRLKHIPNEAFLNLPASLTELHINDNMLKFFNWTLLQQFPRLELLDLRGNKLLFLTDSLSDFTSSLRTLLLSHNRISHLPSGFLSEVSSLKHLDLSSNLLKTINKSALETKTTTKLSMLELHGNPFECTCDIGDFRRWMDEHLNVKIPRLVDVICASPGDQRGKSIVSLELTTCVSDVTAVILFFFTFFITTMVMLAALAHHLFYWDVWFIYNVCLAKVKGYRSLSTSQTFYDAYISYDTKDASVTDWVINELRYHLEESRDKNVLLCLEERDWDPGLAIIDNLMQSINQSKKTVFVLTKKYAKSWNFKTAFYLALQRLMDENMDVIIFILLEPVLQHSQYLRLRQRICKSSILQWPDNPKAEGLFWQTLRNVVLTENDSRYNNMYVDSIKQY
Experimental: (§1) Human whole blood from healthy donors was drawn into EDTA Vacutainer tubes and the experiment started within 2 hr of draw. Four parts blood was diluted with 1 part PBS. 10 mM compounds stock solutions were serially diluted 1:3 eleven times in DMSO. Each serial dilution was further diluted by transferring 3 µl to 100 µl RPMI. For the stimulation only and no stimulation controls, 3 µl 100% DMSO was transferred to 100 µl RPMI. Then, 5 µl of each of these dilutions were transferred to 96-well tissue culture grade U-bottom plate in triplicate for each ligand and each donor. Final inhibitor concentrations were 10, 3.3, 1.1, 0.37, 0.12, 0.04, 0.014, 0.0046, 0.0015, 0.00051, 0.00017, 0.00006 µM. No inhibitor (stimulation only) controls were included in triplicate for each donor. Diluted blood was dispensed on top of inhibitor dilutions at 150 µl/well. Plates were incubated at 37° C. 5% CO2 for 30 min. For TLR7 stimulation, 10 mM stock of a TLR7-specific small molecule agonist in DMSO was diluted to 90 µM in RPMI and 5 µl were added to each inhibitor dilution for each donor. Final concentration was 3 µM. For TLR8 stimulation, 10 mM stock of a TLR8-specific small molecule agonist in DMSO was diluted to 15 µM in RPMI and 5 µl were added to each inhibitor dilution for each donor. Final concentration was 0.5 µM. No stimulation controls were included in triplicate for each donor. Plates were incubated at 37° C. 5% CO2 overnight. Next day, plasma was collected and IL-6 was measured by AlphaLISA (PerkinElmer AL223 according to manufacturer’s protocol.

TLR7 = molecular target: T2, TLR7 (Homo sapiens, UniProt Q9NYK1); assay: Human whole blood assay, TLR7-specific agonist stimulation, IL-6 by AlphaLISA; assay type: cell-based; design: Human whole blood from healthy donors was drawn into EDTA Vacutainer tubes; endogenous in cells; host or cells: human whole blood (healthy donors); conditions: TLR7-specific agonist 3 µM, IL-6 readout, read-out: IC50 TLR7 (IL6 READOUT) HUMAN WHOLE BLOOD (N=2)
T2 sequence (Q9NYK1 27-1049): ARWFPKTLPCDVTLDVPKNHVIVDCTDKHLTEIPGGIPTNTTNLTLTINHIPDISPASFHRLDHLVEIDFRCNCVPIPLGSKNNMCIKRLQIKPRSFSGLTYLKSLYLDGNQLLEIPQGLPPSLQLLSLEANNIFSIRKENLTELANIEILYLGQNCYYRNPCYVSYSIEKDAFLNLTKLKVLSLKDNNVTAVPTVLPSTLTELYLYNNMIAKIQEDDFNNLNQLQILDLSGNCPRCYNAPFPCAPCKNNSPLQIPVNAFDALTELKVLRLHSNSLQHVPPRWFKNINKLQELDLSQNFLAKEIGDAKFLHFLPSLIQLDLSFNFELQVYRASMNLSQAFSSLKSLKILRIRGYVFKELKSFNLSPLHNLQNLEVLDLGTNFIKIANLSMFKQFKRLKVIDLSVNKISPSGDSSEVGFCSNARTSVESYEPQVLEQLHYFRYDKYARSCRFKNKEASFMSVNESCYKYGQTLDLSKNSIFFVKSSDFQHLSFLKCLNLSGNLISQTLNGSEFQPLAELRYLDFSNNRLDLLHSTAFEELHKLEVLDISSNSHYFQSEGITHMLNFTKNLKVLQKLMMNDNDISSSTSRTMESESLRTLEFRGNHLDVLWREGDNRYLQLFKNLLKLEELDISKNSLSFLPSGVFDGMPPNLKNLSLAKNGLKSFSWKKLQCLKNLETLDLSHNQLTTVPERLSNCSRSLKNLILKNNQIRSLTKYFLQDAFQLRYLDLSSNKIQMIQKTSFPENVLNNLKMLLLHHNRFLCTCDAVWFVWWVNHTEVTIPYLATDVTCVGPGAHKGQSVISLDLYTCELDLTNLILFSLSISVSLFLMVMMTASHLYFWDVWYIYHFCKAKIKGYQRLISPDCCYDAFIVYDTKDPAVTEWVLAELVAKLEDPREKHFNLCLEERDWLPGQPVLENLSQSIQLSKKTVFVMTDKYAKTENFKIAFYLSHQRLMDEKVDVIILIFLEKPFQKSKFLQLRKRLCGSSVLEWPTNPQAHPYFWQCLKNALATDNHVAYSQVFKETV
Experimental: as §1

Structure (SMILES)	IC50 (TLR8) [nM]	IC50 (TLR7) [nM]
COc1ccc2nc3cc(Cl)ccc3c(Nc3cc(CN4CCCC4)c(O)c(CN4CCCC4)c3)c2n1 [Compound 1, Pyronaridine]	610	210
CCN(CCO)CCCC(C)Nc1ccnc2cc(Cl)ccc12 (stereo not shown) [HYDROXY-CHLOROQUINE HCQ, hydroxychloroquine]	1240	960

— US20230301981A1, “TLR7/8 ANTAGONISTS AND USES THEREOF” (Merck Patent GmbH, priority 2020, published 2023)
